Source: US7507766B2, “Treatment of cancers” (Pharma Mar, S.A., priority 2000, dated 2009)
Entries after “also recorded” stand apart in the source; their conditions may differ. Starred links: 1 amine or outer side, 2 acyl side, 3 side chain; linkers in the order of their positions; H or OH if unused. Positions of bridges follow the written chain, without caps; N, C: chain ends. Non-standard residues stand in square brackets, D forms with d. Residues, ends and D or L forms follow the SMILES beside them. *: point of attachment. X1 = CC[C@H](C)[C@@H](N[*:1])[C@@H](O)CC(=O)O[C@H](C(=O)[C@H](C)C(=O)[*:2])C(C)C; NMeY = CN[C@@H](Cc1ccc(O)cc1)C(=O)O; dNMeL = CN[C@H](CC(C)C)C(=O)O; Pyruvoyl = CC(=O)C(=O)*

Assays:
[1] = test system: panel of 25 human tumor cell lines; experiment: tumor protection by L-carnitine in panel of tumor cell lines; type: cell-based; conditions: initial results
Protocol: The possibility of tumor protection by L-carnitine was evaluated using a panel of 25 human tumor cell lines.

[2] = Phase I studies: aplidine myotoxicity and L-carnitine as myoprotector; type: in vivo, human
Protocol: More generally, the invention involves the use of a muscle protector in conjunction with aplidine therapy. We have found in particular that carnitine is beneficial in treating myotoxicity that is associated with chemotherapy with the experimental drug aplidine. […] When L-carnitine 4.5 g/day was added to the therapy (at doses of 1.5 g three times daily), or 0.1 mg/kg (at doses of 0.033 mg 3 times daily) patients were able to tolerate doses of aplidine up to 6000 mcg/m 2 every second week. […] Therefore, muscle protectors such as L-carnitine is a useful myoprotector for patients being treated with aplidine or an aplidine analogue.
L-carnitine at a dose of 1.5 grams 3 times per day or 0.033 g/kg 3 times per day was started in all patients of study APL-A-003-98.

spermidine and spermine = conditions: cited from earlier work
MCF-7 = conditions: aplidine 50 mmol/L; cited from earlier work
[3] = stability of aplidine solution and lyophilised dosage form; conditions: heat and light stress testing
Protocol: In a currently preferred embodiment freeze-drying was performed from a […] solution of aplidine in 40% (v/v) tert-butanol in Water for Injection (Wfl) containing 25 mg/mL D-mannitol as bulking agent.

CT-2 = conditions: cited from earlier work
MDA-MB231 = conditions: aplidine; cited from earlier work
[4] = test system: solid tumours and non-Hodgkin lymphoma; experiment: clinical trials: antitumour responses in patients; type: in vivo, human
Protocol: (§1) Definitions for patient toxicities are adopted from WHO Criteria and the responses determined following WHO Response Criteria.
(§2) A phase I and pharmacokinetic study of aplidine, given as a 24 h continuous infusion every other week in patients with solid tumours and non-Hodgkin lymphoma

P388 leukaemia = conditions: mice; cited from earlier work
ornithine decarboxylase = molecular target: T1, ornithine decarboxylase (Homo sapiens, UniProt P11926); conditions: all three cell lines; cited from earlier work
T1 construct: endogenous in cells; host or cells: CT-1, CT-2 and HT-29 colon carcinoma cell lines
T1 sequence (P11926 1-461): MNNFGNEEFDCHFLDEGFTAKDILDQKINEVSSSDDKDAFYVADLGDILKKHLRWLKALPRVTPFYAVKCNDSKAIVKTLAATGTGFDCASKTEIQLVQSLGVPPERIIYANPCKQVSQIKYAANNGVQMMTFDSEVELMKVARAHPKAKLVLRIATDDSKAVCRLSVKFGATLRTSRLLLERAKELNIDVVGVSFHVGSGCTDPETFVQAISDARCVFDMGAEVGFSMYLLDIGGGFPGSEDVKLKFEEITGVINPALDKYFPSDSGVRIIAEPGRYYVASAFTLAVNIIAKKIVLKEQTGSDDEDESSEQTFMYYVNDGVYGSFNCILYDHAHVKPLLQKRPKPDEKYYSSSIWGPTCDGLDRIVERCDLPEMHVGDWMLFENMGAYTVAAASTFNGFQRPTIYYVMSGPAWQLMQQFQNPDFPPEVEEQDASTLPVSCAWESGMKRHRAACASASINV

[5] = test system: Non-small cell lung cancer, breast cancer and melanoma cell lines; conditions: cited from earlier work
lewis lung carcinomas = conditions: mouse, in vivo; cited from earlier work
human cancer xenografts = conditions: cited from earlier work
[6] = Phase I study, 24 h continuous infusion every other week: toxicities; type: in vivo, human
Protocol: as §1, §2

[7] = Phase I study, 24 h continuous infusion every other week: pharmacokinetics; type: in vivo, human
Protocol: as §2

B16 melanoma = conditions: mice; cited from earlier work
human bladder cancer = human bladder cancer animal models; type: in vivo; conditions: complete remissions in some animal models
cell cycle = conditions: cited from earlier work
[8] = Phase I clinical studies: MTD, DLT and RD per dosing regime; type: in vivo, human
Description: The Recommended Dose (RD) is the highest dose which can be safely administered to a patient producing tolerable, manageable and reversibly toxicity according to the Common Toxicity Criteria established by the National Cancer Institute, (USA) with no more than […] patients presenting any dose limiting toxicities (DLT). Guidelines for cancer therapy frequently call for administration of chemotherapeutic agents at the highest safe dose at which toxicity is manageable in order to achieve maximum efficacy (DeVita, V. T. Jr., Hellman, S. and Rosenberg, S. A., Cancer: Principles and Practice of Oncology, 3rd ed., 1989, Lipincott, Philadelphia).
DLTs for aplidine using this method of treatment were determined in clinical studies. These studies established a recommended dose level for differing kinds of dosing protocols.

CT-1 = conditions: cited from earlier work
[9] = test system: gene (FLT1) encoding the receptor of the Vascular Endothelial Growth Factor (VEGF); experiment: expression of the gene FLT1; type: cell-based
VEGF protein = experiment: production of VEGF protein by tumour cells; type: cell-based
[10] = test system: human colon cancer cell line, HT-29; conditions: cited from earlier work
[11] = dose level 200 mcg/m^2/2 wks, of 3 patients
[12] = dose level 400 mcg/m^2/2 wks, of 3 patients
[13] = dose level 800 mcg/m^2/2 wks, of 3 patients
[14] = dose level 1600 mcg/m^2/2 wks, of 6 patients
[15] = dose level 3200 mcg/m^2/2 wks, of 3 patients
[16] = dose level 4000 mcg/m^2/2 wks, of 3 patients
[17] = dose level 5000 mcg/m^2/2 wks, of 3 patients
[18] = dose level 6000 mcg/m^2/2 wks, of 12 patients
[19] = dose level 7000 mcg/m^2/2 wks, of 7 patients

C[N+](C)(C)C[C@H](O)CC(=O)[O-] [L-carnitine, reference compound]
effect of L-carnitine on the antitumor activity of aplidine [1]: lack of effect | increase of aplidine RD by L-carnitine prophylaxis ([2]; human, in vivo): 40% | only toxicity reported for L-carnitine ([2]; human, in vivo): grade 1 abdominal discomfort and diarrhea | L-carnitine dose below which it should not be decreased ([2]; in vivo): ≥ 3.5 grams per day | duration of beneficial effect (normal creatine kinase values) ([2]; in vivo): at least 13 weeks | outcome in 11 patients receiving L-carnitine prophylaxis from the beginning ([2]; in vivo): just an asymptomatic G1 increase in CK | tolerability of L-carnitine ([2]; in vivo): well tolerated

CC[C@H](C)[C@H]1NC(=O)[C@@H](NC(=O)[C@@H](CC(C)C)N(C)C(=O)[C@@H]2CCCN2C(=O)C(C)=O)[C@@H](C)OC(=O)[C@H](Cc2ccc(OC)cc2)N(C)C(=O)[C@@H]2CCCN2C(=O)[C@H](CC(C)C)NC(=O)[C@@H](C)C(=O)[C@H](C(C)C)OC(=O)C[C@@H]1O [aplidine] (Pyruvoyl-P[dNMeL]T[X1]LP[NMeY](Me); ester 3-C)
spermidine and spermine in treated cells (spermidine and spermine): significant increase | growth inhibition (MCF-7): 47% | degradation in solution [3]: substantial degradation | cytotoxic activity (CT-2): dose-dependent cytotoxic activity | relative sensitivity among CT-1, CT-2, HT-29 (CT-2; most proliferative line): most sensitive | growth inhibition (MDA-MB231): 17% | responses in cancer patients ([4]; clinical trials): Responses in cancer patients have been observed | antitumour activity in patients ([4]; patients with NHL and renal carcinoma): Antitumour activity has been also noted | activity against implanted P388 leukaemia (P388 leukaemia): active | optimal dose (P388 leukaemia): 160 micro/kg | ornithine decarboxylase activity (ornithine decarboxylase): decreased ornithine decarboxylase activity | growth of tumour cell lines ([5]; continuous exposure to low concentrations, non-Hodgkin's lymphoma, melanoma, breast, ovarian, non-small cell lung cancers): inhibited the growth | concentration at which cell lines were sensitive ([5]; continuous exposure): >= 0.001 micromol/L | activity in SC implanted lewis lung carcinomas (lewis lung carcinomas): active | remissions (human cancer xenografts; 2.1 mg/kg): near complete remissions in some animals | treated/control (T/C) tumour ratio (human cancer xenografts; 2.1 mg/kg): 9% | maximum tolerated dose (human cancer xenografts; mice): 2.1 mg/kg | muscle biopsies, E/M finding ([6]; 2 patients): partial disappearance of thick filaments of myosin | dose limiting toxicity (muscular changes), patients ([6]; 6000 mcg/m^2): 1/9 | time to recovery of toxicity after treatment discontinuation ([6]; Pat #27): ≤ 3 weeks | Nausea/vomiting G2, no. patients [6, 11]: 2 | Transaminitis G2, no. patients [6, 11]: 1 | Asthenia G2, no. patients [6, 12]: 2 | Hypertension G2, no. patients [6, 12]: 1 | Nausea/vomiting G2, no. patients [6, 12]: 1 | Flushing G1, no. patients [6, 13]: 1 | Muscle cramps G1 + G2, no. patients [6, 13]: 2 | Asthenia G2, no. patients [6, 14]: 2 | Asthenia G3, no. patients [6, 14]: 1 | Muscle cramps G1 + G2, no. patients [6, 14]: 1 | Nausea/vomiting G2, no. patients [6, 14]: 4 | Transaminitis G3, no. patients [6, 14]: (1) | Asthenia G2, no. patients [6, 15]: 1 | Flushing G1, no. patients [6, 15]: 1 | Muscle cramps G1 + G2, no. patients [6, 15]: 2 | Muscle pain G2, no. patients [6, 15]: (1) | Nausea/vomiting G3, no. patients [6, 15]: (1) | Asthenia G2, no. patients [6, 16]: 1 | Flushing G1, no. patients [6, 16]: 1 | Muscle cramps G1 + G2, no. patients [6, 16]: 2 | Muscle pain G1, no. patients [6, 16]: 2 | Nausea/vomiting G2, no. patients [6, 16]: 2 | Pain central catheter G2, no. patients [6, 16]: 2 | Asthenia G3, no. patients [6, 17]: (1) | CPK elevation G3, no. patients [6, 17]: (1) [1] | CPK elevation G4, no. patients [6, 17]: (1) [1] | Muscle cramps G1 + G2, no. patients [6, 17]: 2 | Muscle pain G1, no. patients [6, 17]: 1 | Muscle weakness G1, no. patients [6, 17]: 1 | Nausea/vomiting G2, no. patients [6, 17]: 1 | Transaminitis G2, no. patients [6, 17]: 1 | Asthenia G2, no. patients [6, 18]: 6 | CPK elevation G2, no. patients [6, 18]: 1(1) | CPK elevation G3, no. patients [6, 18]: 1(1) | Muscle cramps G1 + G2, no. patients [6, 18]: 1 | Muscle pain G1, no. patients [6, 18]: 1 | Muscle pain G2, no. patients [6, 18]: 2 | Muscle weakness G1, no. patients [6, 18]: 1(1) | Muscle weakness G2, no. patients [6, 18]: 1(1) | Nausea/vomiting G2, no. patients [6, 18]: 2 | Asthenia G2, no. patients [6, 19]: 2 | CPK elevation G2, no. patients [6, 19]: 1 | Flushing G1, no. patients [6, 19]: 1 | Muscle pain G1, no. patients [6, 19]: 1 | Nausea/vomiting G2, no. patients [6, 19]: 1 | Neutrophenia G4, no. patients [6, 19]: 1 | Transaminitis G2, no. patients [6, 19]: 1 | t ½ in the 3 patients with clear muscular toxicity ([7]; 24 h infusion): > 44 h | coefficient of variation of CL (interpatient) ([7]; human, in vivo): 62% | PK profile ([7]; low sample size): dose-linear | terminal phase median half-life ([7]; preliminary compartmental analysis, 24 h infusion): 25.8 h | initial phase median half-life ([7]; preliminary compartmental analysis, first-order 2-compartment model): 0.64 h | t ½, median ([7]; quartiles 15.7-35.0): 23.8 h | plasma CL, median ([7]; quartiles 192-415): 252 mL/min/m^2 | Vss, median ([7]; quartiles 274-638): 413 L/m^2 | activity against implanted B16 melanoma (B16 melanoma): active | optimal dose (B16 melanoma): 160 micro/kg | activity on human bladder cancer (human bladder cancer): exceedingly high activity | cell cycle perturbations (cell cycle): did not induce any apparent cell cycle pertubations | toxicity in some subjects without L-carnitine ([2]; 24-hour infusion, 4500 mcg/m^2 every week, then 6000 mcg/m^2 every second week): muscular and skeletal toxicity | new dose-limiting factor under L-carnitine prophylaxis ([2]; 24 h every other week infusion study): non-muscular | electron microscopy of muscle, most important change ([2]; biopsied patients): disappearance of thick filaments | dose from which muscle cramps occur (mild cases) ([2]; every 2 weeks): ≥ 3200 mcg/m2 | onset of myotoxicity, number of infusions, median ([2]; in vivo): 4 infusions | relationship of myotoxicity to exposure ([2]; in vivo): related to prolonged exposure rather than high exposure or concentrations | reversible increases in creatin-kinase (CK), grade reached ([2]; more severe cases): ≤ 3 grade | dose-limiting toxicity ([8]; 1-hour infusion for 5 consecutive days every 3 weeks): Muscular/long; also recorded: lasting emesis | dose-limiting factor ([8]; 4 Phase I trials): skeletal muscle toxicity | dose-limiting toxicity ([8]; 24 hour infusion every 2 weeks, L-carnitine daily): Flu-like | dose-limiting toxicity ([8]; weekly 24 hour infusion for 3 weeks, 1 week rest): Muscular/; also recorded: hepatic | RD of aplidine ([8]; with L-carnitine 0.1 g/kg/day in 3 portions, for Phase II studies): 7 mg/m^2 | cytotoxic activity (CT-1): dose-dependent cytotoxic activity | expression of FLT1 gene [9]: inhibits expression | production of VEGF protein by tumour cells (VEGF protein): severely inhibit production | cytotoxic activity [10]: dose-dependent cytotoxic activity
